Assay results from US20240156790A1, “COMPOUNDS, COMPOSITIONS, AND METHODS FOR MODULATING FERROPTOSIS AND TREATING EXCITOTOXIC DISORDERS” (THE TRUSTEES OF COLUMBIA UNIVERSITY IN THE CITY OF NEW YORK, priority 2018, published 2024).
Entries after “also recorded” stand apart in the source; their conditions may differ. Read-outs that look alike come from different tables or passages of the source.

Experiments:
[1] = tested on: R6/2 Huntington's mouse model; assay: 30-day toxicity study in symptomatic R6/2 and wild type mice; format: in vivo; conditions: for tolerability of chronic administration: 20 mg/kg daily for 30 days, IP and PO; for protection against body weight loss / deaths after 30 days: R6/2 mice; for deaths after 30 days: 20 mg/kg daily
Experimental: In order to assess whether ferrostatins can be used in a long-term efficacy, we performed a toxicity study with the three analogs to determine whether symptomatic R6/2 mice could tolerate chronic administration of analog. Use TH-4-55-2 as an example: symptomatic R6/2 mice of both sexes at ˜10 weeks of age were dosed daily with 20 mg/kg TH-4-55-2 via both IP and oral gavage for 30 days. Body weight was measured and recorded and the % change in body weight from the baseline calculated. Any mice that lost more than 20% of their body weight for three days were euthanized prior to the completion of the study.
Ferrostatin analogs were dissolved in 5% DMSO/95% of 1:1 [(65% v/v of 25% w/v 2-hydroxypropyl-β-cyclodextrin dissolved in 20% EtOH, 30% v/v Poly(ethylene glycol)-400, 5% v/v Tween 80):MilliQ water] to create a 2 mg/mL solution. The same formulation without analog was used as a vehicle control. The solution was sterilized using a […] Steriflip filter unit. C57BL/6 and R6/2 mice at ˜10 weeks of age, after onset of symptoms in R6/2 mice, were injected with ferrostatin analog or vehicle at a dose of 20 mg/kg daily for 30 days via IP and PO routes of administration. […] Mice were randomly assigned to each condition, weighed daily, the weight recorded, and the change in body weight compared to the baseline, pre-injection weight was calculated. Any mouse that lost more than 20% of its baseline body weight for three consecutive days was euthanized prior to the completion of the study. Injections occurred daily at the same time in the day to ensure consistency. Experimental blinding was achieved by separating the syringe preparation and the injection and data analysis components, with one researcher preparing the syringes and the other injecting the mice and analyzing the data. Unblinding occurred at the termination of the study after the completion of data analysis. Data were plotted and analyzed in Graph Pad Prism 9.0 with significance determined via Two Way ANOVA or Mixed-effects model with Tukey's test for multiple comparisons.
Symptomatic R6/2 and age-matched C57BL/6 wild type mice of both sexes at ˜10 weeks of age were dosed daily with 20 mg/kg of TH-4-55-2 via IP or PO for 30 days. Body weight was measured and recorded and the percent change in body weight from baseline calculated. Per IACUC guidelines, any mouse that lost more than 20% body weight for three days was euthanized prior to completion of the study.

[2] = TH-2-31, TH-4-55-2, TH-4-67 PK Study (IP, IV, PO; plasma and brain); format: in vivo, C57BL/6 mice; conditions: for Cmax brain (nM) / concentration in brain following IV administration (rapid accumulation) / half-life / concentration at 24 h / Cmax: 20 mg/kg; for half-life / concentration at 24 h / Cmax: both sexes, C57BL/6, mouse; for half-life: read-out: in vivo brain t1/2; for brain penetrance / accumulation in brain over plasma, in words: mouse, in vivo; for stability / accumulation in plasma in vivo, in words: up to 24 hours
Experimental: C57BL/6 mice (8-weeks of age and ˜25 g weight) were weighed before injection and divided into groups of two male and female mice per cage. Compound was dissolved in 5% DMSO/95% of 1:1 [(65% v/v of 25% w/v 2-hydroxypropyl-3-cyclodextrin (Cayman Chemical) dissolved in 20% EtOH, 30% v/v Poly(ethylene glycol)-400 (Sigma Aldrich 202398), 5% v/v Tween 80 (Fluka 59924)):MilliQ water] to create a 2 mg/mL solution. The same formulation without compound was used as a vehicle control. The solution was sterilized using a […] Steriflip filter unit (Thomas Scientific 1189Q46). Mice were dosed IP, IV, and PO routes of administration and euthanized by CO2 asphyxiation for 3 min at 0, 1, 2, 4, 8, and 24 h after administration. To ensure that the vehicle was well-tolerated 4 mice were treated with vehicle and euthanized 4 h after administration. ˜0.5 mL of blood was collected via cardiac puncture and immediately put in K3 EDTA microtubes ([…] 41.1504.105) and kept on ice. Organs were harvested, placed in Eppendorf tubes, and frozen on dry ice. Blood samples were centrifuged for 10 min at 2,100×g at 4° C., then plasma was transferred to a clean tube and frozen on dry ice. Organ samples were weighed and placed in hard tissue homogenizing tubes (Omni International 19-628) and a volume of DEPC-treated nuclease-free water (IBI Scientific IB42200) was added to make a 500 mg/mL solution and homogenized using the Omni Bead Ruptor 4 at speed 5 for 30 seconds. Compound was extracted from plasma or organ homogenate by adding 900 μL acetonitrile to 100 μL plasma or organ homogenate. Samples were mixed by vortexing and allowed to extract overnight at 4° C. prior to mixing for at least 5 min by rotating at room temperature, vortexing, and sonicating for at least 30 second prior to centrifugation for 10 min at 4,000×g and 4° C. The supernatant was then transferred to a glass vial and analyzed by UPLC-MS described below. The concentration of each analog was determined against a standard curve with a nonlinear fit and the data plot in GraphPad Prism 9 and fit with a one phase decay.
Samples from animal studies were analyzed via UPLC-MS using a Waters Xevo G2-Xs QTof Mass spectrometer equipped with an Acquity UPLC. Chromatographic separation was carried out at 50° C. on a Acquity UPLC BEH C18 column (1.7 μm, 2.1 mm×50 mm, pore size 130 Å) over a 4.5 min gradient elution. The flowrate was held constant at 0.8 mL/min. Mobile phase A consisted of water and mobile phase B consisted of ACN both containing 0.1% formic acid. After injection, the gradient was held at 50% A for 0.25 min. For the next minute, the gradient was ramped in a linear fashion to 100% B and held at this composition for 0.5 min. The eluent composition returned to the initial condition in 0.01 min and the column was re-equilibrated for 2.74 min before the next injection. Injection volumes were 0.5 μL (TH-2-31 40 mg/kg) and 1 μL for all other conditions. The Xevo G2-Xs was operated in positive electrospray ionization (ESI) mode. A capillary voltage and sampling cone voltage of 0.5 kV and 30 V were used. The source and desolvation temperatures were kept at 120° C. and […], respectively. Nitrogen was used as the desolvation gas with a flowrate of 750 L/hr. The protonated molecular ion of leucine encephalin ([M+H]^+, m/z 556.2771 was used as a lock mass for mass accuracy and reproducibility. Leucine enkephalin was introduced to the lock mass at a concentration of 2 ng/mL (50% ACN containing 0.1% formic acid), and a flow rate of […]. To avoid signal saturation, the signal transmission was attenuated to <10%, based off the signal intensity of the highest standard concentration for the duration of the run. The data was collected over the mass range m/z 50 to 1200 Da with an acquisition time of 0.1 seconds per scan. The retention time for each analog is detailed below. […]

[3] = plasma, all routes of administration, read-out: concentration in plasma 24 hours after administration

SMILES: Cc1noc(-c2cnc(NC3CCCCC3)c(NC3CCCCC3)c2)n1 [TH-2-31, N^2,N^3-dicyclohexyl-5-(3-methyl-1,2,4-oxadiazol-5-yl)pyridine-2,3-diamine]
- tolerability of chronic administration [1]: no detectable weight loss induced by either compound
- protection against body weight loss ([1]; PO administration, 20 mg/kg): didn't show this protective effect
- Cmax brain/ IC50 ([2]; IP): 633
- Cmax brain (nM) ([2]; IP): 2,133 nM
- Cmax brain/ IC50 ([2]; IV): 99,335
- Cmax brain (nM) ([2]; IV): 334,759 nM
- concentration in brain following IV administration (rapid accumulation) ([2]; IV): greater than 300 μM
- Cmax brain/ IC50 ([2]; PO): 353
- Cmax brain (nM) ([2]; PO): 1,190 nM
- half-life ([2]; brain, ip, R.O.A. IP): > 8 h
- half-life ([2]; brain, iv, R.O.A. IV): < 1 h
- concentration at 24 h ([2]; brain, iv, read-out: concentration in brain 24 hours after administration): 10 µM
- half-life ([2]; brain, po, R.O.A. PO): > 24 h
- Cmax ([2]; plasma, ip): 50.9 µM
- Cmax ([2]; plasma, iv): 25.8 µM
- Cmax ([2]; plasma, po): 2.24 µM
- concentration at 24 h [2, 3]: > 0.5 µM
- brain penetrance / accumulation in brain over plasma, in words [2]: preferentially accumulate in brain over plasma for all time-points following IV administration

SMILES: CCC(CC)Nc1cc(-c2nc(C)no2)cnc1NC1CCCCC1 [TH-4-55-2, N^2-cyclohexyl-5-(3-methyl-1,2,4-oxadiazol-5-yl)-N^3-(pentan-3-yl)pyridine-2,3-diamine]
- tolerability of chronic administration [1]: well-tolerated in a 30-day toxicity study in wild-type mice and symptomatic R6/2 HD mice; also recorded: non-toxic and well-tolerated by R6/2 mice
- deaths after 30 days ([1]; IP administration): one TH-4-55-2-treated mouse died
- deaths after 30 days ([1]; PO administration, 20 mg/kg): one TH-4-55-2-treated mouse died; also recorded: one TH-4-55-2-treated mice died
- protection against body weight loss ([1]; PO administration, 20 mg/kg): protected from body weight loss over time; also recorded: showed protection against HD-related weight loss; also recorded: showed a significant protective effect; also recorded: appeared to have no loss in body weight during the injection series
- Cmax brain/ IC50 ([2]; IP): 1,765
- Cmax brain (nM) ([2]; IP): 3,936 nM
- Cmax brain/ IC50 ([2]; IV): 35,567
- Cmax brain (nM) ([2]; IV): 79,314 nM
- concentration in brain following IV administration (rapid accumulation) ([2]; IV): > 75 µM
- Cmax brain/ IC50 ([2]; PO): 632
- Cmax brain (nM) ([2]; PO): 1,410 nM
- time present in plasma at μM concentrations ([2]; all routes of administration): up to 8 hours
- half-life ([2]; brain, ip, R.O.A. IP): > 8 h
- half-life ([2]; brain, iv, R.O.A. IV): < 1 h
- concentration at 24 h ([2]; brain, other: IP and PO, IP and PO administration, read-out: concentration in brain 24 hours post administration): > 1 µM
- half-life ([2]; brain, po, R.O.A. PO): > 24 h
- Cmax ([2]; plasma, ip): 63.8 µM
- Cmax ([2]; plasma, iv): 32.1 µM
- Cmax ([2]; plasma, po): 2.93 µM
- concentration at 24 h [2, 3]: > 0.8 µM
- brain penetrance / accumulation in brain over plasma, in words [2]: preferentially accumulate in brain over plasma for all time-points following IV administration
- stability / accumulation in plasma in vivo, in words [2]: accumulated the most

SMILES: Cc1noc(-c2cnc(NC3CCCC3)c(NC3CCCC3)c2)n1 [TH-4-67, N^2,N^3-dicyclopentyl-5-(3-methyl-1,2,4-oxadiazol-5-yl)pyridine-2,3-diamine]
- tolerability of chronic administration [1]: no detectable weight loss induced by either compound
- protection against body weight loss ([1]; PO administration, 20 mg/kg): didn't show this protective effect
- Cmax brain/ IC50 ([2]; IP): 1,389
- time present in plasma at μM concentrations ([2]; IP administration): up to 2 hours
- Cmax brain (nM) ([2]; IP): 2,916 nM
- Cmax brain/ IC50 ([2]; IV): 24,820
- Cmax brain (nM) ([2]; IV): 52,121 nM
- concentration in brain following IV administration (rapid accumulation) ([2]; IV): > 50 µM
- Cmax brain/ IC50 ([2]; PO): 740
- time present in plasma at μM concentrations ([2]; PO and IV administration): up to 1 hour
- Cmax brain (nM) ([2]; PO): 1,554 nM
- concentration at 24 h ([2]; brain, all routes of administration, read-out: concentration in brain 24 hours post administration): < 0.2 µM
- half-life ([2]; brain, iv, R.O.A. IV): < 1 h
- Cmax ([2]; plasma, ip): 82.1 µM
- Cmax ([2]; plasma, iv): 40.6 µM
- Cmax ([2]; plasma, po): 1.77 µM
- concentration at 24 h [2, 3]: < 0.025 µM
- stability / accumulation in plasma in vivo, in words [2]: accumulated the least; also recorded: the least stable
